Reference: PMC11619344 (Antimicrobial Agents and Chemotherapy, 2024)
≈ marks a conversion by molar mass, not a printed value.

Key:
[1] = tested on: ST258/KPC-35 mutant IMI 1.1; experiment: MIC, broth microdilution; format: cell-based; conditions: Klebsiella pneumoniae
[2] = tested on: K. pneumoniae ST258/KPC-35 (KPC-2 L169P); experiment: Single-step mutant frequencies and mutant prevention concentrations; format: cell-based, Klebsiella pneumoniae; conditions: for Imipenem mutant frequency: MH agar, 48 h
Protocol: (§1) The plates were incubated for 48 h at 37°C before the frequency of resistance emergence was calculated as the ratio of the number of colony forming units (CFUs) grown on the antibiotic-containing plate and the number of CFUs on antibiotic-free plates. Mutant prevention concentrations were defined as the lowest concentration of antibiotic combination for which there were zero colonies on all agar plates ([23]). All determinations were conducted in triplicate.

[3] = tested on: K. pneumoniae ST512/KPC-31 (KPC-3 D179Y); experiment: as above; format: cell-based, Klebsiella pneumoniae; conditions: for Imipenem mutant frequency: MH agar, 48 h
Protocol: as §1

[4] = tested on: K. pneumoniae ST512/KPC-31 (KPC-3 D179Y) parental clinical isolate; experiment: MIC, broth microdilution; format: cell-based; conditions: Klebsiella pneumoniae
[5] = tested on: ST258/KPC-35 mutant IMI 3.1; experiment: MIC, broth microdilution; format: cell-based; conditions: Klebsiella pneumoniae
[6] = tested on: ST512/KPC-31 mutant IMI 1.1; experiment: MIC, broth microdilution; format: cell-based; conditions: Klebsiella pneumoniae
[7] = tested on: E. coli HB4 KPC-2 L169T; experiment: MIC of recombinant strains; format: cell-based; conditions: Escherichia coli, HB4KPC2L169T; E. coli HB4 expressing KPC-2 L169T in pUCP24
Protocol: (§2) 14.0 (www.eucast.org/clinical_breakpoints).
(§3) Recombinant strains were selected in 10 mg/L of gentamicin-LB agar plates. The β-lactam MICs were determined for the transformants according to the above-described methodology.

[8] = tested on: E. coli HB4 KPC-2; experiment: MIC of recombinant strains; format: cell-based; conditions: Escherichia coli, HB4KPC2; E. coli HB4 expressing KPC-2 in pUCP24
Protocol: as §2, §3

[9] = tested on: E. coli HB4 KPC-2 L169A; experiment: MIC of recombinant strains; format: cell-based; conditions: Escherichia coli, HB4KPC2L169A; E. coli HB4 expressing KPC-2 L169A in pUCP24
Protocol: as §2, §3

[10] = tested on: E. coli HB4 KPC-3; experiment: MIC of recombinant strains; format: cell-based; conditions: Escherichia coli, HB4KPC3; E. coli HB4 expressing KPC-3 in pUCP24
Protocol: as §2, §3

[11] = tested on: E. coli HB4; experiment: MIC of recombinant strains; format: cell-based; conditions: Escherichia coli; E. coli HB4 (OmpC- and OmpF-deficient), no KPC
Protocol: as §2, §3

[12] = tested on: E. coli HB4 KPC-35 (KPC-2 L169P); experiment: MIC of recombinant strains; format: cell-based; conditions: Escherichia coli; E. coli HB4 expressing KPC-35 (KPC-2 L169P) in pUCP24
Protocol: as §2, §3

[13] = tested on: E. coli HB4 KPC-3 D179N; experiment: MIC of recombinant strains; format: cell-based; conditions: Escherichia coli, HB4KPC3D179N; E. coli HB4 expressing KPC-3 D179N in pUCP24
Protocol: as §2, §3

[14] = tested on: E. coli HB4 KPC-31 (KPC-3 D179Y); experiment: MIC of recombinant strains; format: cell-based; conditions: Escherichia coli; E. coli HB4 expressing KPC-31 (KPC-3 D179Y) in pUCP24
Protocol: as §2, §3

[15] = tested on: ST512/KPC-31 mutant IMI 1.2; experiment: MIC, broth microdilution; format: cell-based; conditions: Klebsiella pneumoniae
[16] = tested on: ST512/KPC-31 mutant IMI 2.1; experiment: MIC, broth microdilution; format: cell-based; conditions: Klebsiella pneumoniae
[17] = tested on: K. pneumoniae ST258/KPC-35 (KPC-2 L169P) parental clinical isolate; experiment: MIC, broth microdilution; format: cell-based; conditions: Klebsiella pneumoniae
[18] = tested on: ST258/KPC-35 mutant IMI 2.1; experiment: MIC, broth microdilution; format: cell-based; conditions: Klebsiella pneumoniae
[19] = tested on: ST512/KPC-31 mutant IMI 2.2; experiment: MIC, broth microdilution; format: cell-based; conditions: Klebsiella pneumoniae
[20] = tested on: ST258/KPC-35 mutant IMI 3.2; experiment: MIC, broth microdilution; format: cell-based; conditions: Klebsiella pneumoniae
[21] = tested on: ST512/KPC-31 mutant IMI 3.2; experiment: MIC, broth microdilution; format: cell-based; conditions: Klebsiella pneumoniae
[22] = tested on: ST258/KPC-35 mutant IMI 2.2; experiment: MIC, broth microdilution; format: cell-based; conditions: Klebsiella pneumoniae
[23] = tested on: ST258/KPC-35 mutant IMI 1.2; experiment: MIC, broth microdilution; format: cell-based; conditions: Klebsiella pneumoniae
[24] = tested on: ST512/KPC-31 mutant IMI 3.1; experiment: MIC, broth microdilution; format: cell-based; conditions: Klebsiella pneumoniae
[25] = molecular target: T1, KPC-2 (Klebsiella pneumoniae, UniProt Q9F663); experiment: Specific β-lactamase activity against imipenem, crude extract; format: biochemical; conditions: hydrolysis of imipenem by KPC-2 crude extract, 297 nm
T1 construct: made in house; host or cells: E. coli HB4 (porin-deficient), plasmid pUCP24
Protocol: (§4) Cultures were centrifuged at 3,500 × g, 15 min at 4°C, resuspended in 10 mL of phosphate-buffered saline (PBS; pH ~7.4) and sonicated with Ultraschall Prozessor UP 200S Hielscher (Teltow, Germany).

[26] = molecular target: T2, KPC-2 L169T (Klebsiella pneumoniae, UniProt Q9F663, L168T); experiment: as above; format: biochemical; conditions: hydrolysis of imipenem by KPC-2 L169T crude extract, 297 nm
T2 construct: made in house; host or cells: E. coli HB4 (porin-deficient), plasmid pUCP24
Protocol: as §4

[27] = molecular target: T3, KPC-2 L169A (Klebsiella pneumoniae, UniProt Q9F663, L168A); experiment: as above; format: biochemical; conditions: hydrolysis of imipenem by KPC-2 L169A crude extract, 297 nm
T3 construct: made in house; host or cells: E. coli HB4 (porin-deficient), plasmid pUCP24
Protocol: as §4

[28] = molecular target: T4, KPC-3 (Klebsiella pneumoniae, UniProt Q9F663, H272Y); experiment: as above; format: biochemical; conditions: hydrolysis of imipenem by KPC-3 crude extract, 297 nm
T4 construct: made in house; host or cells: E. coli HB4 (porin-deficient), plasmid pUCP24
Protocol: as §4

[29] = molecular target: T5, KPC-3 D179N (Klebsiella pneumoniae, UniProt Q9F663, D178N/H272Y); experiment: as above; format: biochemical; conditions: hydrolysis of imipenem by KPC-3 D179N crude extract, 297 nm
T5 construct: made in house; host or cells: E. coli HB4 (porin-deficient), plasmid pUCP24
Protocol: as §4

[30] = tested on: K. pneumoniae ST258/KPC-35; experiment: In vitro resistance dynamics (stepwise, 7 days); format: cell-based, Klebsiella pneumoniae; conditions: stepwise resistance development, MH broth, up to 64× MIC
[31] = tested on: K. pneumoniae ST512/KPC-31; experiment: In vitro resistance dynamics (stepwise, 7 days); format: cell-based, Klebsiella pneumoniae; conditions: stepwise resistance development, MH broth, up to 64× MIC
[32] = fold higher than the MIC of the parental strain
[33] = relebactam fixed at 4 mg/L in the combination

## C[C@@H](O)[C@H]1C(=O)N2C(C(=O)O)=C(SCCN=CN)C[C@H]12 [IMI, imipenem]
[1]
  MIC: 256 µg/mL (≈ 855 µM)
[2]; [32]
  Mutant prevention concentration relative to baseline MIC: 16 fold
[2]; imipenem concentration 2 mg/L
  Imipenem mutant frequency: 8.22×10^−9
[2]; imipenem concentration 4 mg/L
  Imipenem mutant frequency: 5.08×10^−10
[2]; imipenem concentration 8 mg/L
  Imipenem mutant frequency: ≤ 1.69×10^−11
[2]; [33]
  Mutant prevention concentration: 8 mg/L
[3]; [32]
  Mutant prevention concentration relative to baseline MIC: 64 fold
[3]; imipenem concentration 2 mg/L
  Imipenem mutant frequency: 1.29×10^−8
[3]; imipenem concentration 4 mg/L
  Imipenem mutant frequency: 6.10×10^−10
[3]; imipenem concentration 8 mg/L
  Imipenem mutant frequency: ≤ 2.44×10^−11
[3]; [33]
  Mutant prevention concentration: 8 mg/L
[4]
  MIC: 0.125 µg/mL (≈ 0.418 µM)
[5]
  MIC: 128 µg/mL (≈ 428 µM)
[6]
  MIC: > 256 µg/mL
[7]
  MIC: 16 µg/mL
[8]
  MIC: 32 µg/mL
[9]
  MIC: 8 µg/mL
[10]
  MIC: 16 µg/mL
[11]
  MIC: 0.125 µg/mL
[12]
  MIC: 0.25 µg/mL
[13]
  MIC: 0.25 µg/mL
[14]
  MIC: 0.25 µg/mL
[15]
  MIC: > 256 µg/mL
[16]
  MIC: > 256 µg/mL
[17]
  MIC: 0.5 µg/mL (≈ 1.67 µM)
[18]
  MIC: > 256 µg/mL
[19]
  MIC: > 256 µg/mL
[20]
  MIC: 128 µg/mL (≈ 428 µM)
[21]
  MIC: 32 µg/mL (≈ 107 µM)
[22]
  MIC: > 256 µg/mL
[23]
  MIC: 256 µg/mL (≈ 855 µM)
[24]
  MIC: 32 µg/mL (≈ 107 µM)
[25]
  Specific activity: 0.55 µmol/min/mg
[26]
  Specific activity: 0.13 µmol/min/mg
[27]
  Specific activity: 0.1 µmol/min/mg
[28]
  Specific activity: 2.5 µmol/min/mg
[29]
  Specific activity: 0.02 µmol/min/mg
[30]
  Day on which 64× MIC values were reached: 3 days
[31]
  Day on which 64× MIC values were reached: 5 days
